Assay results as given in patent publication US20130231393A1, “USE OF SQUARAMIDE IN THE PREVENTION AND/OR TREATMENT OF ROSACEA” (GALDERMA RESEARCH & DEVELOPMENT, priority 2010, published 2013).

Assays:
CXCR2 = biological target: T1, CXCR2 (Homo sapiens, UniProt P25025); experiment: β-arrestin2 recruitment assay, antagonism of CXCL8 stimulation (PathHunter HEK293 hCXCR2 b-arrestin); assay type: cell-based; conditions: PathHunter HEK293 hCXCR2 b-arrestin cells, CXCL8-stimulated
T1 sequence (P25025 1-360): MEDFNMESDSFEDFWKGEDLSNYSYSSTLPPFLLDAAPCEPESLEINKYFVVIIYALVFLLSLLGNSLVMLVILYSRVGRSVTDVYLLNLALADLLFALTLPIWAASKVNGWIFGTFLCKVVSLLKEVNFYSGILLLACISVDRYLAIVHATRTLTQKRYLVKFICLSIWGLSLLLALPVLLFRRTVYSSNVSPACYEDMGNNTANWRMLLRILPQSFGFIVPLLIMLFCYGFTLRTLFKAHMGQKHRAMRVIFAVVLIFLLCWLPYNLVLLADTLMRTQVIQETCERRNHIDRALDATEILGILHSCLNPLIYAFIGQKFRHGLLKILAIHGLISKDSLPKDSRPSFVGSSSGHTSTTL
Experimental: (§1) Antagonism of CXCL8-Stimulated β-Arrestin2 Recruitment. […] To monitor direct interaction of CXCR2 or CXCR1 with β-arrestin2, we used a β-arrestin2 recruitment assay for CXCR2 or CXCR1 based on enzyme complementation of β-galactosidase (Olson and Eglen, 2007), as established by DiscoveRx Corporation. […] All CXCR2-antagonists are tested in dose-depedant manner (firsty dose 10 μM).
(§2) PathHunter HEK293-hCXCR2 b-arrestin cells or U2OS hCXCR1 b-arrestin cells (both from DiscoveRx Corporation) were plated out overnight at 10,000 cells/well (384-well format) in 50 μl of Opti MEM I+1% bovine serum albumin. Cells were treated with CXR2 antogonist or vehicule (Opti MEM I) and CXCL-8 at the same time for 90 min.; thereafter, 25 μl of PathHunter Detection Reagents (DiscoveRx Corporation) was added. After an incubation of 60 min at room temperature, β-galactosidase-induced luminescence upon β-arrestin-CXCR1/2 interaction was measured in an TopCount Reader (Perkin Elmer). Functional data were evaluated by a nonlinear curve fitting procedure using XLFit4 (IDBS).

CXCR1 = biological target: T2, CXCR1 (Homo sapiens, UniProt P25024); experiment: β-arrestin2 recruitment assay, antagonism of CXCL8 stimulation (U2OS hCXCR1 b-arrestin); assay type: cell-based; conditions: U2OS hCXCR1 b-arrestin cells, CXCL8-stimulated
T2 construct: β-galactosidase enzyme-complementation fragment (PathHunter system); host or cells: U2OS (U2OS hCXCR1 b-arrestin)
T2 sequence (P25024 1-350): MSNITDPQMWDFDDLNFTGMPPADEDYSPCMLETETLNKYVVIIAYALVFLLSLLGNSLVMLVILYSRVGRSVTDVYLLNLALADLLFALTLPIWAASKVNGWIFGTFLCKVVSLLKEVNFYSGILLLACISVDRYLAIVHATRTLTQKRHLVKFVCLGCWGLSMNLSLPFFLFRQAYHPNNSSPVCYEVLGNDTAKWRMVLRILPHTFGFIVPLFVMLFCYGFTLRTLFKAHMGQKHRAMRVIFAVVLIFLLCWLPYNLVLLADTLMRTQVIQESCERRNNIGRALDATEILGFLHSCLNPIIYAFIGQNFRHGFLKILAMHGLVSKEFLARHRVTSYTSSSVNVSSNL
Experimental: as §1, §2

hairless SKH1 mice = experiment: RTX-induced vasodilation in a neurogenic skin inflammation model (laser Doppler perfusion imaging); assay type: in vivo; conditions: capsazepine at 5%, topical; RTX 0.03% on the back of SKH1 mice
Experimental: The animal model of neurogenic skin inflammation was induced by a unique topical application of resiniferatoxin (RTX), 0.03% on the back of hairless SKH1 mice. RTX is an ultrapotent capsaicin analog and RTX exposure evokes neuropeptides release. Most of these neuropeptides have vasodilatory properties and one component of RTX-induced neurogenic inflammation is the dermal vasodilation. In the present RTX-model, the objective assessment of the skin vasodilation was evaluated by laser Doppler perfusion imaging.
Material and Method: • Measurement of RTX-Induced Vasodilation
Adult female hairless SKH1 mice aged 7-9 weeks are obtained from Charles River (France). Anaesthesia with ketamine/xylazine is performed 10 minutes before treatment and body temperature is maintained at 35° C.-37° C. using an automated heating pad. A skin area of 1.8×1.5 cm on the back of the mouse is divided in two regions of interest. One region is treated with the vehicle, the other one with RTX 0.03%. […] The skin blood perfusion is evaluated every 2 minutes on the back of the mouse with a Laser Doppler perfusion imaging PIM3 (Perimed, France). […] Images are analysed and the yield of two parameters, the erythematous surface and the blood perfusion intensity ratio, is calculated as a relative area of vasodilation (mm^2). […] Results are expressed as mean±SEM. […]

IC50 (CXCR2)	IC50 (CXCR1)	Structure (SMILES)	relative area of vasodilation, AUC decreased by (hairless SKH1 mice)
7 nM	148 nM	CC[C@@H](Nc1c(Nc2cccc(C(=O)N(C)C)c2O)c(=O)c1=O)c1ccccc1 [3-[3,4-Dioxo-2-((R)-1-phenyl-propylamino)-cyclobut-1-enylamino]-2-hydroxy-N,N-dimethyl-benzamide]	
		Oc1cc2c(cc1O)CN(C(=S)NCCc1ccc(Cl)cc1)CCC2 [capsazepine]	13%
